Source: article PMC11676667, “Pharmacokinetics of Oral Cannabinoid Δ8-Tetrahydrocannabivarin and Its Main Metabolites in Healthy Participants” (Pharmaceuticals, 2024)
Read-outs that look alike come from different tables or passages of the source.

Columns and labels:
[1] = Plasma pharmacokinetics after single oral dose of Δ8-THCV in MCT oil (LC-MS/MS, non-compartmental analysis); type: in vivo, human; parameters: Clast (last quantifiable concentration): unit not given here; details: for plasma concentration: Predose; for concentration at 0.5 h / concentration at 1 h / concentration at 2 h / concentration at 4 h / concentration at 6 h / concentration at 8 h / AUC(0-t) / Cmax / MRT / Tmax: human; for concentration at 0.5 h / concentration at 1 h / concentration at 2 h / concentration at 4 h / concentration at 6 h / concentration at 8 h: oral; for AUC(0-t) / Cmax / MRT / Tmax: po; for MRT: read-out: MRT (mean residence time); for Tmax: read-out: tmax
In short: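 Healthy participants received single oral Δ8-THCV in MCT oil (50 mg/mL; 12.5-200 mg, or placebo) after a high-fat, high-calorie breakfast, with ≥1-week washout. Plasma (K2EDTA) sampled predose and 0.5-8 h post-dose, assayed by validated LC-MS/MS including metabolites; PK by non-compartmental analysis, sub-LLOQ values set to 0.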

CB2 receptors = test system: CB2 receptors; parameters: method as in PMID 21470208; details: in vitro; cited from earlier work
[2] = 12.5 mg single oral Δ8-THCV in MCT oil, plasma, Mean (±SD)
[3] = 12.5 mg single oral Δ8-THCV in MCT oil, plasma, Median (Range)
[4] = 25 mg single oral Δ8-THCV in MCT oil, plasma, Mean (±SD)
[5] = 25 mg single oral Δ8-THCV in MCT oil, plasma, Median (Range)
[6] = 50 mg single oral Δ8-THCV in MCT oil, plasma, Mean (±SD)
[7] = 50 mg single oral Δ8-THCV in MCT oil, plasma, Median (Range)
[8] = 100 mg single oral Δ8-THCV in MCT oil, plasma, Mean (±SD)
[9] = 100 mg single oral Δ8-THCV in MCT oil, plasma, Median (Range)
[10] = 200 mg single oral Δ8-THCV in MCT oil, plasma, Mean (±SD)
[11] = 200 mg single oral Δ8-THCV in MCT oil, plasma, Median (Range)
[12] = plasma, 12.5 mg, 12.5 mg Δ8-THCV dose, Mean (SD, %CV)
[13] = plasma, 12.5 mg, 12.5 mg Δ8-THCV dose, Median (IQ Range)
[14] = plasma, 25 mg, 25 mg Δ8-THCV dose, Mean (SD, %CV)
[15] = plasma, 25 mg, 25 mg Δ8-THCV dose, Median (IQ Range)
[16] = plasma, 50 mg, 50 mg Δ8-THCV dose, Mean (SD, %CV)
[17] = plasma, 50 mg, 50 mg Δ8-THCV dose, Median (IQ Range)
[18] = plasma, 100 mg, 100 mg Δ8-THCV dose, Mean (SD, %CV)
[19] = plasma, 100 mg, 100 mg Δ8-THCV dose, Median (IQ Range)
[20] = plasma, 200 mg, 200 mg Δ8-THCV dose, Mean (SD, %CV)
[21] = plasma, 200 mg, 200 mg Δ8-THCV dose, Median (IQ Range)
[22] = plasma, 12.5 mg, 12.5 mg single oral Δ8-THCV in MCT oil, Mean (±SD)
[23] = plasma, 12.5 mg, 12.5 mg single oral Δ8-THCV in MCT oil, Median (Range)
[24] = plasma, 12.5 mg, 12.5 mg single oral Δ8-THCV in MCT oil, plasma, Mean (±SD)
[25] = plasma, 12.5 mg, 12.5 mg single oral Δ8-THCV in MCT oil, plasma, Median (Range)
[26] = plasma, 25 mg, 25 mg single oral Δ8-THCV in MCT oil, Mean (±SD)
[27] = plasma, 25 mg, 25 mg single oral Δ8-THCV in MCT oil, Median (Range)
[28] = plasma, 25 mg, 25 mg single oral Δ8-THCV in MCT oil, plasma, Mean (±SD)
[29] = plasma, 25 mg, 25 mg single oral Δ8-THCV in MCT oil, plasma, Median (Range)
[30] = plasma, 50 mg, 50 mg single oral Δ8-THCV in MCT oil, Mean (±SD)
[31] = plasma, 50 mg, 50 mg single oral Δ8-THCV in MCT oil, Median (Range)
[32] = plasma, 50 mg, 50 mg single oral Δ8-THCV in MCT oil, plasma, Mean (±SD)
[33] = plasma, 50 mg, 50 mg single oral Δ8-THCV in MCT oil, plasma, Median (Range)
[34] = plasma, 100 mg, 100 mg single oral Δ8-THCV in MCT oil, Mean (±SD)
[35] = plasma, 100 mg, 100 mg single oral Δ8-THCV in MCT oil, Median (Range)
[36] = plasma, 100 mg, 100 mg single oral Δ8-THCV in MCT oil, plasma, Mean (±SD)
[37] = plasma, 100 mg, 100 mg single oral Δ8-THCV in MCT oil, plasma, Median (Range)
[38] = plasma, 200 mg, 200 mg single oral Δ8-THCV in MCT oil, Mean (±SD)
[39] = plasma, 200 mg, 200 mg single oral Δ8-THCV in MCT oil, Median (Range)
[40] = plasma, 200 mg, 200 mg single oral Δ8-THCV in MCT oil, plasma, Mean (±SD)
[41] = plasma, 200 mg, 200 mg single oral Δ8-THCV in MCT oil, plasma, Median (Range)

CCCc1cc(O)c2c(c1)OC(C)(C)[C@@H]1CC=C(CO)C[C@@H]21 (racemic) [11-OH-Δ8-THCV, (±)-11-hydroxy-Δ8-THCV]
Clast (last quantifiable concentration) [1, 2]: 0.8 (±0.2)
tlast (time to last quantifiable concentration) [1, 2]: 3.6 (±1.7)
Clast (last quantifiable concentration) [1, 3]: 0.8 (0.6–1.1)
tlast (time to last quantifiable concentration) [1, 3]: 4 (2–6)
Clast (last quantifiable concentration) [1, 4]: 0.8 (±0.1)
tlast (time to last quantifiable concentration) [1, 4]: 4.3 (±1.8)
Clast (last quantifiable concentration) [1, 5]: 0.8 (0.6–1)
tlast (time to last quantifiable concentration) [1, 5]: 4 (2–6)
Clast (last quantifiable concentration) [1, 6]: 0.9 (±0.3)
tlast (time to last quantifiable concentration) [1, 6]: 7.8 (±0.6)
Clast (last quantifiable concentration) [1, 7]: 0.8 (0.6–1.5)
tlast (time to last quantifiable concentration) [1, 7]: 8 (6–8)
Clast (last quantifiable concentration) [1, 8]: 1.4 (±0.9)
tlast (time to last quantifiable concentration) [1, 8]: 7.6 (±1.2)
Clast (last quantifiable concentration) [1, 9]: 1.1 (0.5–3.8)
tlast (time to last quantifiable concentration) [1, 9]: 8 (4–8)
Clast (last quantifiable concentration) [1, 10]: 3.7 (±2.6)
tlast (time to last quantifiable concentration) [1, 10]: 8 (±0)
Clast (last quantifiable concentration) [1, 11]: 3.1 (1.2–11.3)
tlast (time to last quantifiable concentration) [1, 11]: 8 (8–8)
plasma concentration ([1]; 12.5 mg Δ8-THCV dose, Mean (SD, %CV)): 0 (±0, --) ng/mL
plasma concentration ([1]; 12.5 mg Δ8-THCV dose, Median (IQ Range)): 0 (0–0) ng/mL
plasma concentration ([1]; 25 mg Δ8-THCV dose, Mean (SD, %CV)): 0 (±0, --) ng/mL
plasma concentration ([1]; 25 mg Δ8-THCV dose, Median (IQ Range)): 0 (0–0) ng/mL
plasma concentration ([1]; 50 mg Δ8-THCV dose, Mean (SD, %CV)): 0 (±0, --) ng/mL
plasma concentration ([1]; 50 mg Δ8-THCV dose, Median (IQ Range)): 0 (0–0) ng/mL
plasma concentration ([1]; 100 mg Δ8-THCV dose, Mean (SD, %CV)): 0 (±0, --) ng/mL
plasma concentration ([1]; 100 mg Δ8-THCV dose, Median (IQ Range)): 0 (0–0) ng/mL
plasma concentration ([1]; 200 mg Δ8-THCV dose, Mean (SD, %CV)): 0 (±0, --) ng/mL
plasma concentration ([1]; 200 mg Δ8-THCV dose, Median (IQ Range)): 0 (0–0) ng/mL
median AUClast ratio Δ8-THCV-COOH/Δ8-THCV/11-OH-Δ8-THCV ([1]; after the 200 mg dose, Δ8-THCV = 1): 0.18
concentration at 0.5 h [1, 12]: 0 ng/mL
concentration at 0.5 h [1, 13]: 0 ng/mL
concentration at 1 h [1, 12]: 0 ng/mL
concentration at 1 h [1, 13]: 0 ng/mL
concentration at 2 h [1, 12]: 0.1 ng/mL
concentration at 2 h [1, 13]: 0 ng/mL
concentration at 4 h [1, 12]: 0.1 ng/mL
concentration at 4 h [1, 13]: 0 ng/mL
concentration at 6 h [1, 12]: 0.1 ng/mL
concentration at 6 h [1, 13]: 0 ng/mL
concentration at 8 h [1, 12]: 0 ng/mL
concentration at 8 h [1, 13]: 0 ng/mL
concentration at 0.5 h [1, 14]: 0 ng/mL
concentration at 0.5 h [1, 15]: 0 ng/mL
concentration at 1 h [1, 14]: 0.1 ng/mL
concentration at 1 h [1, 15]: 0 ng/mL
concentration at 2 h [1, 14]: 0.3 ng/mL
concentration at 2 h [1, 15]: 0 ng/mL
concentration at 4 h [1, 14]: 0.2 ng/mL
concentration at 4 h [1, 15]: 0 ng/mL
concentration at 6 h [1, 14]: 0.2 ng/mL
concentration at 6 h [1, 15]: 0 ng/mL
concentration at 8 h [1, 14]: 0 ng/mL
concentration at 8 h [1, 15]: 0 ng/mL
concentration at 0.5 h [1, 16]: 0 ng/mL
concentration at 0.5 h [1, 17]: 0 ng/mL
concentration at 1 h [1, 16]: 0.1 ng/mL
concentration at 1 h [1, 17]: 0 ng/mL
concentration at 2 h [1, 16]: 0.4 ng/mL
concentration at 2 h [1, 17]: 0 ng/mL
concentration at 4 h [1, 16]: 0.6 ng/mL
concentration at 4 h [1, 17]: 0 ng/mL
concentration at 6 h [1, 16]: 1 ng/mL
concentration at 6 h [1, 17]: 0.9 ng/mL
concentration at 8 h [1, 16]: 0.6 ng/mL
concentration at 8 h [1, 17]: 0.6 ng/mL
concentration at 0.5 h [1, 18]: 0 ng/mL
concentration at 0.5 h [1, 19]: 0 ng/mL
concentration at 1 h [1, 18]: 1.4 ng/mL
concentration at 1 h [1, 19]: 0.5 ng/mL
concentration at 2 h [1, 18]: 1.8 ng/mL
concentration at 2 h [1, 19]: 1 ng/mL
concentration at 4 h [1, 18]: 2.1 ng/mL
concentration at 4 h [1, 19]: 1.3 ng/mL
concentration at 6 h [1, 18]: 2.4 ng/mL
concentration at 6 h [1, 19]: 1.5 ng/mL
concentration at 8 h [1, 18]: 1.3 ng/mL
concentration at 8 h [1, 19]: 1.1 ng/mL
concentration at 0.5 h [1, 20]: 0 ng/mL
concentration at 0.5 h [1, 21]: 0 ng/mL
concentration at 1 h [1, 20]: 1.2 ng/mL
concentration at 1 h [1, 21]: 0 ng/mL
concentration at 2 h [1, 20]: 4.5 ng/mL
concentration at 2 h [1, 21]: 1.8 ng/mL
concentration at 4 h [1, 20]: 5.2 ng/mL
concentration at 4 h [1, 21]: 3.4 ng/mL
concentration at 6 h [1, 20]: 4.6 ng/mL
concentration at 6 h [1, 21]: 3.7 ng/mL
concentration at 8 h [1, 20]: 3.7 ng/mL
concentration at 8 h [1, 21]: 3.1 ng/mL
AUC(0-t) [1, 22]: 0.7 ng·h/mL
Cmax [1, 22]: 0.8 ng/mL
AUC(0-t) [1, 23]: 0.8 ng·h/mL
Cmax [1, 23]: 0.8 ng/mL
MRT [1, 24]: 1.5 h
Tmax [1, 24]: 3.4 h
MRT [1, 25]: 1.4 h
Tmax [1, 25]: 4 h
AUC(0-t) [1, 26]: 1.5 ng·h/mL
Cmax [1, 26]: 0.9 ng/mL
AUC(0-t) [1, 27]: 0.8 ng·h/mL
Cmax [1, 27]: 0.8 ng/mL
MRT [1, 28]: 3.6 h
Tmax [1, 28]: 3.7 h
MRT [1, 29]: 3.6 h
Tmax [1, 29]: 4 h
AUC(0-t) [1, 30]: 6.2 ng·h/mL
Cmax [1, 30]: 2 ng/mL
AUC(0-t) [1, 31]: 5.3 ng·h/mL
Cmax [1, 31]: 1.9 ng/mL
MRT [1, 32]: 5.7 h
Tmax [1, 32]: 5 h
MRT [1, 33]: 6.1 h
Tmax [1, 33]: 6 h
AUC(0-t) [1, 34]: 13.9 ng·h/mL
Cmax [1, 34]: 4.3 ng/mL
AUC(0-t) [1, 35]: 12.4 ng·h/mL
Cmax [1, 35]: 3.4 ng/mL
MRT [1, 36]: 4.6 h
Tmax [1, 36]: 4.2 h
MRT [1, 37]: 4.3 h
Tmax [1, 37]: 5 h
AUC(0-t) [1, 38]: 30.8 ng·h/mL
Cmax [1, 38]: 8.7 ng/mL
AUC(0-t) [1, 39]: 29.5 ng·h/mL
Cmax [1, 39]: 6.4 ng/mL
MRT [1, 40]: 4.8 h
Tmax [1, 40]: 4.7 h
MRT [1, 41]: 4.7 h
Tmax [1, 41]: 4 h
number of positive plasma samples ([1]; of 504 plasma samples from 15 participants after oral Δ8-THCV): 157
concentration in representative plasma sample ([1]; one subject after oral Δ8-THCV in MCT oil, Figure A1): 11.8 ng/mL
tmax later after doses greater than 50 mg compared to the 12.5 mg and 25 mg doses ([1]; oral Δ8-THCV, plasma): 1.3 fold
CB2 receptor activation (CB2 receptors): activate CB2 receptors
